Patent US7834025B2, “Substituted indolyl-alkyl-amino-derivatives as inhibitors of histone deacetylase” (Janssen Pharmaceutica N.V., priority 2006, dated 2010)
≈ marks a conversion by molar mass, not a printed value. Like-named read-outs stand apart in the source and are kept apart here.

Assays:
[1] = Kinetic solubility in aqueous media (C.3.a); format: physicochemical; conditions: kinetic from dmso stock, aqueous buffer pH 7.4
Procedure: (§1) The solubility of a compound measures the ability of a compound to stay in solution. In the first method, the ability of a compound to stay in aqueous solution upon dilution (see example C.3.a) is measured. DMSO-stock solutions are diluted with a single aqueous buffer solvent in different consecutive steps. Mixtures are then scanned in the BD Gentest Solubility Scanner for the occurrence of precipitation. In the second method the solubility of a compound at different pH's can be measured with the use of a chemiluminescent nitrogen detector (see example C.3.b).
DMSO-stock solutions from 5000-9.8 μM (½ dilutions) are made in DMSO in a 96 well stock solution plate (200 μl per well). After each dilution the samples are mixed. Aliquots of these DMSO solutions (2 μl) are then transferred into 2 other 96 well buffer plates, containing 200 μl per well aqueous buffer. Each of the buffer plates contains either aqueous buffer pH 7.4 or aqueous buffer pH 4.0. After the last dilution the buffer plates are mixed and the samples are stabilized at room temperature for ½ hour. Dilution is done in duplicate for each compound to exclude occasional errors. Mixtures are then scanned in the BD Gentest Solubility Scanner for the occurrence of precipitation. Based on the absence/presence of precipitate in the mixtures the kinetic solubility is calculated by interpolation. Ranking is performed into the 3 classes.

[2] = biological target: histone deacetylase (HeLa nuclear extracts); assay: In vitro assay for inhibition of histone deacetylase (Fluor de Lys, HeLa nuclear extracts); format: biochemical; conditions: HeLa nuclear extracts 60 μg/ml, 75 μM Fluor de Lys substrate
Source text: The in vitro assay for inhibition of histone deacetylase (see example C.1) measures the inhibition of HDAC enzymatic activity obtained with the compounds of formula (I).
The HDAC Fluorescent Activity Assay/Drug Discovery Kit of Biomol (cat. No: AK-500-0001) was used. The HDAC Fluorescent Activity Assay is based on the Fluor de Lys (Fluorogenic Histone deAcetylase Lysyl) substrate and developer combination. The Fluor de Lys substrate, comprises an acetylated lysine side chain. Deacetylation of the substrate sensitizes the substrate so that, in the second step, treatment with the Fluor de Lys developer produces a fluorophore.
HeLa nuclear extracts (supplier: Biomol) were incubated at 60 μg/ml with 75 μM of substrate. The Fluor de Lys substrate was added in a buffer containing 25 mM Tris, 137 mM NaCl, 2.7 mM KCl and 1 mM MgCl2.6H2O at pH 7.4. After 30 min, 1 volume of the developer was added. The fluorophore was excited with 355 nm light and the emitted light (450 nm) was be detected on a fluorometric plate reader. For each experiment, controls (containing HeLa nuclear extract and buffer), a blank incubation (containing buffer but no HeLa nuclear extract) and samples (containing compound dissolved in DMSO and further diluted in buffer and HeLa nuclear extract) were run in parallel. In first instance, compounds were tested at a concentration of 10^−5M. […] All sample were tested 4 times. In each test the blank value was subtracted from both the control and the sample values. The control sample represented 100% of substrate deacylation. For each sample the fluorescence was expressed as a percentage of the mean value of the controls. […] Herein the effects of test compounds are expressed as pIC50 (the negative log value of the IC50-value) (see Table F-2).

[3] = system: human A2780 ovarian carcinoma cells; assay: Antiproliferative activity on A2780 cells (MTT); format: cell-based; conditions: 96 h, four days of incubation, read-out: Cellular activity pIC50 C.2. (converted)
Procedure: Cellular activity of the compounds of formula (I) was determined on A2780 tumour cells using a […] assay for cell toxicity or survival (Mosmann Tim, Journal of Immunological Methods 65: 55-63, 1983)(see example C.2).
All compounds tested were dissolved in DMSO and further dilutions were made in culture medium. Final DMSO concentrations never exceeded 0.1% (v/v) in cell proliferation assays. Controls contained A2780 cells and DMSO without compound and blanks contained DMSO but no cells. MTT was dissolved at 5 mg/ml in PBS. A glycine buffer comprised of 0.1 M glycine and 0.1 M NaCl buffered to pH 10.5 with NaOH (1 N) was prepared (all reagents were from Merck).
The human A2780 ovarian carcinoma cells (a kind gift from Dr. T. C. Hamilton [Fox Chase Cancer Centre, Pa., USA]) were cultured in RPMI 1640 medium supplemented with 2 mM L-glutamine, 50 μg/ml gentamicin and 10% fetal calf serum. Cells were routinely kept as monolayer cultures at 37° C. in a humidified 5% CO2 atmosphere. Cells were passaged once a week using a trypsin/EDTA solution at a split ratio of 1:40. All media and supplements were obtained from Life Technologies. Cells were free of mycoplasma contamination as determined using the Gen-Probe Mycoplasma Tissue Culture kit (supplier: BioMérieux).
Cells were seeded in NUNC™ 96-well culture plates (Supplier: Life Technologies) and allowed to adhere to the plastic overnight. Densities used for plating were 1500 cells per well in a total volume of 200 μl medium. After cell adhesion to the plates, medium was changed and drugs and/or solvents were added to a final volume of 200 μl. Following four days of incubation, medium was replaced by 200 μl fresh medium and cell density and viability was assessed using an MTT-based assay. […] For each sample, the mean value for cell growth (in absorbance units) was expressed as a percentage of the mean value for cell growth of the control. […] Herein the effects of test compounds are expressed as pIC50 (the negative log value of the IC50-value)(see Table F-2).

[4] = Metabolic stability in liver microsomes; conditions: reference compounds; 15 min incubation with microsomes, 5 μM
[5] = Solubility with chemiluminescent nitrogen detector (C.3.b); format: physicochemical; conditions: pH 2.3, aqueous buffer
Procedure: as §1
The solubility of a compound, at different pH's, can also be measured with the use of a chemiluminescent nitrogen detector (see Table F-2).

[6] = system: p21 promoter reporter A2780 clone tumour in nude mice; assay: p21 induction capacity, in vivo method (tumour fluorescence); conditions: s.c. A2780 reporter clone, 20-40 mpk orally or intravenously daily during 6 days
Procedure: The last method is an in vivo method wherein mice are used for screening the pharmaceutical activity of a compound. The above described stably transformed tumour cells can be administered to mice in an amount sufficient to effect production of a tumour. After the tumour cells had sufficient time to form a tumour, a potentially active compound can be administered to the animals and the effect of said compound on the tumour cells is evaluated by measuring the expression of the reporter gene. Incubation with pharmaceutical active compounds will result in an increase of reporter gene expression compared to the control levels (see example C.6.b.)
A selected clone was injected subcutaneous (10^7 cells/200 μl) into the flank of nude mice and a calliper measurable tumour was obtained after 12 days. From day 12 on, animals were dosed, orally or intraveinally, daily during 6 days with solvent and 20-40 mpk compound (4-10 animals each). Tumours were evaluated for fluorescence by the in-house developed Automated Whole Body Imaging System (Fluorescent stereomicroscope type Olympus® SZX12 equipped with a GFP filter and coupled to a CCD camera type JAI® CV-M90 controlled by a software package based on the IMAQ Vision Software from National Instruments®).

[7] = human, 15 min, 5 μM

Row | SMILES | solubility at 0.5 h [1] [µM] | melting point [°C] | Enzymatic activity pIC50 C.1. [2] | IC50 [3] [nM] | other results
1 | CC(NCC1CCN(c2ncc(C(=O)NO)cn2)CC1)c1cn(C)c2ccccc12 (stereo not drawn) [Compound 1] | 7.8 (≈ 3.19 µg/mL) | 296 | 9.0 | 31.6 | –
2 | CCCO [propanol] | – | – | – | – | % metabolism [4]: 25%
3 | Cn1cc(C2CCN(CC3CCN(c4ncc(C(=O)NO)cn4)CC3)C2)c2ccccc21 (stereo not drawn) [Compound 2] | 9.4 (≈ 4.08 µg/mL) | 231 | 8.9 | 50.1 | solubility [5]: 1350 µg/mL (≈ 3.11 mM); Tumour fluorescence (reporter gene expression) versus control [6]: increased fluorescence as compared to control
4 | COc1cc(N)c(Cl)cc1C(=O)NC1CCN(CCCOc2ccc(F)cc2)CC1OC (stereo not drawn) [Cisapride] | – | – | – | – | % metabolism [7]: 45%

Continued, in another order:

Row | solubility at 0.5 h [1] [µM] | melting point [°C] | Enzymatic activity pIC50 C.1. [2] | IC50 [3] [nM] | SMILES | other results
5 | 15.6 (≈ 7 µg/mL) | 224 | 8.3 | 31.6 | Cn1cc(C2CCCN(CC3CCN(c4ncc(C(=O)NO)cn4)CC3)C2)c2ccccc21 (stereo not drawn) [Compound 3] | –
6 | – | 70 | – | – | Cn1cc(C2CCN(CC3CCN(c4ccc(C(=O)NO)cn4)CC3)C2)c2ccccc21 (stereo not drawn) [Compound 4] | –
7 | – | 90 | – | – | Cn1cc(C2CCN(CC3CCN(c4ccc(C(=O)Nc5ccccc5N)cn4)CC3)C2)c2ccccc21 (stereo not drawn) [Compound 5] | –
